Where only a bound is given, the exact number is not on record here.

For series [1], the target named is T1, K-2 to K-3 domains of rat plasminogen (Rattus norvegicus, UniProt Q01177).
T1 construct: made in house
T1 sequence (Q01177 184-352 limits assumed): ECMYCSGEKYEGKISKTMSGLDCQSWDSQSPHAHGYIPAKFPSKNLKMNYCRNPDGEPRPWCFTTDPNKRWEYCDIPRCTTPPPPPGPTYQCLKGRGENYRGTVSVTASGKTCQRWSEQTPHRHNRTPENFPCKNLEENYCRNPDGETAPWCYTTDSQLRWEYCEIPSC
Description: ITC binding to rat plasminogen K-2 to K-3. Here is the method:
The nucleotide sequence encoding the human LPA gene (NP_005568.2) was inserted into a mammalian expression vector containing a cytomegalovirus promoter. Protein expression was performed by transient transfection of human embryonic kidney 293 (HEK293) cells cultured in serum-free medium. The culture medium was collected five days after transfection and human apo(a) protein was purified using L-lysine affinity chromatography. Nucleotide sequences encoding various KIV domains of human apo(a) and human and rat plasminogen were inserted into a pET21a Escherichia coli expression vector. […] All protein concentrations were determined by A280. […] The microsyringe was loaded with a solution of the respective compounds, with the concentration measured by quantitative nuclear magnetic resonance, and was inserted into the calorimetric cell prefilled with the respective recombinant proteins of known concentration in ITC buffer. […] Thermodynamic parameters were calculated using the basic equation of thermodynamics (ΔG = ΔH - TΔS = -RTlnKd), where ΔG, ΔH and ΔS are the changes in free energy, enthalpy and entropy of binding, respectively; Kd is the equilibrium dissociation constant; T is the absolute temperature ([…]); and R is the gas constant (1.987 cal mol^-1 K^-^1). […]

The target of a further series is T2, apo(a) KIV5–8 (Homo sapiens, UniProt P08519).
T2 construct: made in house
T2 sequence (P08519 1043-1470 limits assumed): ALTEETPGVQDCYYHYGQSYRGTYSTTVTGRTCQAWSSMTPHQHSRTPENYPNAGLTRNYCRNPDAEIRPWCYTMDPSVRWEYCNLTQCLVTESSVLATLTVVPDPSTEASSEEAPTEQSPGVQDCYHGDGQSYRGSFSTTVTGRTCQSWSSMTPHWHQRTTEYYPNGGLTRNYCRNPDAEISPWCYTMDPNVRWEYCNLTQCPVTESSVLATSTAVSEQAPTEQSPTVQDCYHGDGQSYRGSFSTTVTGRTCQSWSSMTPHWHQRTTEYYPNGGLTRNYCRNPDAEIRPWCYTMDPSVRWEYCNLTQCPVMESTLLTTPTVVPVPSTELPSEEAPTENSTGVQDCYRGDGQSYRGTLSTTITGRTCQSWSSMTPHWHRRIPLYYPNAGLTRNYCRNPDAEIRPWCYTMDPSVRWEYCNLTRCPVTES
Nature of the series: ITC binding to apo(a) KIV5–8. Here is the method: The nucleotide sequence encoding the human LPA gene (NP_005568.2) was inserted into a mammalian expression vector containing a cytomegalovirus promoter. Protein expression was performed by transient transfection of human embryonic kidney 293 (HEK293) cells cultured in serum-free medium. The culture medium was collected five days after transfection and human apo(a) protein was purified using L-lysine affinity chromatography. Nucleotide sequences encoding various KIV domains of human apo(a) and human and rat plasminogen were inserted into a pET21a Escherichia coli expression vector. Bacterial BL21(DE3) was used as the expression host, and the induction of protein expression was performed in 2× TY medium with 1 mM isopropyl β-D-1-thiogalactopyranoside at 37 °C for 5 h. Cells were collected and stored at –80 °C for subsequent protein purification and refolding. […] All protein concentrations were determined by A280.
Experiments were performed on a MicroCal Auto-iTC200 titration calorimeter (Malvern Panalytical), with a cell volume of 200 μl and a 40-μl microsyringe. […] The microsyringe was loaded with a solution of the respective compounds, with the concentration measured by quantitative nuclear magnetic resonance, and was inserted into the calorimetric cell prefilled with the respective recombinant proteins of known concentration in ITC buffer. […]

The next series relates to plasmin activity. Further details: method as in PMID 37638695. The following applies: human phase 1 study; cited from earlier work.

For `Cl.Cl.O=C(Nc1cccc(C[C@H](C(=O)O)[C@H]2CCNC2)c1)Nc1cccc(C[C@H](C(=O)O)[C@H]2CCNC2)c1` [LSN3441732], in series [1], the Kd is less than 10 nM and the “fold higher affinity for rat than human plasminogen K-2 to K-3” value is “more than 100 fold”. Moreover, on apo(a) KIV5–8, the Kd was less than 15 nM.
With `O=C(O)[C@@H](Cc1cccc(CN(Cc2cccc(C[C@H](C(=O)O)[C@H]3CCNC3)c2)Cc2cccc(C[C@H](C(=O)O)[C@H]3CCNC3)c2)c1)[C@H]1CCNC1` [LY3473329], the “plasmin activity at oral doses lowering Lp(a)” value in the series on plasmin activity is “without affecting plasmin activity”.

The term Kd denotes the free concentration of one partner at which half of the binding sites on the other are occupied at equilibrium, for simple one-to-one binding.

The values above are taken from article PMC11111404, “Discovery of potent small-molecule inhibitors of lipoprotein(a) formation” (Nature, 2024).
